Patent publication US8192962B2, “Processes for detecting toxic substances” (Daikin Industries, Ltd., priority 2001, dated 2012)

System: Metabolism protein genes
Assay: DNA chip mRNA expression in yeast, metabolism protein genes (Table 7)
Type: cell-based, Saccharomyces cerevisiae S288C
Method in brief: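 Cells were grown at 25° C. in YPD, treated at logarithmic phase for 2 h with a chemical at a concentration inhibiting growth but not causing death, and compared with untreated cultures. Labeled cDNA was hybridized to a DNA chip carrying all yeast genes, and the expression ratio was taken from scanner fluorescence.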

Substance: Na2As [(1)]
- The level of expressed mRNA in the presence of chemical substance/The level of expressed mRNA in the absence of chemical substance (yeast gene YAL012W): 1.1
- The level of expressed mRNA in the presence of chemical substance/The level of expressed mRNA in the absence of chemical substance (yeast gene YAL038W): 1.0
- level of expressed mRNA in the presence/in the absence of chemical substance (yeast gene YBR003W): 0.9
- level of expressed mRNA in the presence/in the absence of chemical substance (yeast gene YBR011C): 1.3
- level of expressed mRNA in the presence/in the absence of chemical substance (yeast gene YBR020W): 1.0
- The level of expressed mRNA in the presence of chemical substance/The level of expressed mRNA in the absence of chemical substance (yeast gene YBR023C): 0.5
- The level of expressed mRNA in the presence of chemical substance/The level of expressed mRNA in the absence of chemical substance (yeast gene YBR029C): 0.7
- The level of expressed mRNA in the presence of chemical substance/The level of expressed mRNA in the absence of chemical substance (yeast gene YBR183W): 1.8
- The level of expressed mRNA in the presence of chemical substance/The level of expressed mRNA in the absence of chemical substance (yeast gene YBR222C): 0.6
- The level of expressed mRNA in the presence of chemical substance/The level of expressed mRNA in the absence of chemical substance (yeast gene YBR256C): 3.0
- The level of expressed mRNA in the presence of chemical substance/The level of expressed mRNA in the absence of chemical substance (yeast gene YCL009C): 0.6
- The level of expressed mRNA in the presence of chemical substance/The level of expressed mRNA in the absence of chemical substance (yeast gene YCL064C): 0.6
- level of expressed mRNA in the presence/in the absence of chemical substance (yeast gene YCR010C): 1.6
- level of expressed mRNA in the presence/in the absence of chemical substance (yeast gene YCR034W): 0.8
- The level of expressed mRNA in the presence of chemical substance/The level of expressed mRNA in the absence of chemical substance (yeast gene YCR048W): 0.5
- The level of expressed mRNA in the presence of chemical substance/The level of expressed mRNA in the absence of chemical substance (yeast gene YCR098C): 1.6
- The level of expressed mRNA in the presence of chemical substance/The level of expressed mRNA in the absence of chemical substance (yeast gene YDR019C): 1.4
- level of expressed mRNA in the presence/in the absence of chemical substance (yeast gene YDR050C): 1.6
- level of expressed mRNA in the presence/in the absence of chemical substance (yeast gene YDR073W): 1.7
- level of expressed mRNA in the presence/in the absence of chemical substance (yeast gene YDR123C): 1.2
- level of expressed mRNA in the presence/in the absence of chemical substance (yeast gene YDR178W): 2.0
- level of expressed mRNA in the presence/in the absence of chemical substance (yeast gene YDR277C): 1.6
- level of expressed mRNA in the presence/in the absence of chemical substance (yeast gene YDR284C): 0.8
- level of expressed mRNA in the presence/in the absence of chemical substance (yeast gene YDR345C): 0.8
- The level of expressed mRNA in the presence of chemical substance/The level of expressed mRNA in the absence of chemical substance (yeast gene YDR380W): 0.8
- level of expressed mRNA in the presence/in the absence of chemical substance (yeast gene YDR400W): 1.0
- level of expressed mRNA in the presence/in the absence of chemical substance (yeast gene YDR408C): 1.0
- level of expressed mRNA in the presence/in the absence of chemical substance (yeast gene YDR483W): 1.1
- The level of expressed mRNA in the presence of chemical substance/The level of expressed mRNA in the absence of chemical substance (yeast gene YDR497C): 0.7
- The level of expressed mRNA in the presence of chemical substance/The level of expressed mRNA in the absence of chemical substance (yeast gene YDR502C): 1.2
- The level of expressed mRNA in the presence of chemical substance/The level of expressed mRNA in the absence of chemical substance (yeast gene YDR516C): 1.2
- level of expressed mRNA in the presence/in the absence of chemical substance (yeast gene YEL063C): 0.7
- level of expressed mRNA in the presence/in the absence of chemical substance (yeast gene YER015W): 0.7
- The level of expressed mRNA in the presence of chemical substance/The level of expressed mRNA in the absence of chemical substance (yeast gene YER026C): 0.8
- The level of expressed mRNA in the presence of chemical substance/The level of expressed mRNA in the absence of chemical substance (yeast gene YER053C): 1.6
- The level of expressed mRNA in the presence of chemical substance/The level of expressed mRNA in the absence of chemical substance (yeast gene YER069W): 1.3
- level of expressed mRNA in the presence/in the absence of chemical substance (yeast gene YER081W): 1.6
- The level of expressed mRNA in the presence of chemical substance/The level of expressed mRNA in the absence of chemical substance (yeast gene YER096W): 1.1
- level of expressed mRNA in the presence/in the absence of chemical substance (yeast gene YER120W): 0.9
- The level of expressed mRNA in the presence of chemical substance/The level of expressed mRNA in the absence of chemical substance (yeast gene YER178W): 0.8
- level of expressed mRNA in the presence/in the absence of chemical substance (yeast gene YFL011W): 1.2
- The level of expressed mRNA in the presence of chemical substance/The level of expressed mRNA in the absence of chemical substance (yeast gene YFL014W): 3.4
- The level of expressed mRNA in the presence of chemical substance/The level of expressed mRNA in the absence of chemical substance (yeast gene YFL030W): 1.6
- The level of expressed mRNA in the presence of chemical substance/The level of expressed mRNA in the absence of chemical substance (yeast gene YFL031W): 0.5
- The level of expressed mRNA in the presence of chemical substance/The level of expressed mRNA in the absence of chemical substance (yeast gene YFL056C): 19.0
- The level of expressed mRNA in the presence of chemical substance/The level of expressed mRNA in the absence of chemical substance (yeast gene YFL057C): 20.9
- The level of expressed mRNA in the presence of chemical substance/The level of expressed mRNA in the absence of chemical substance (yeast gene YFR047C): 1.3
- level of expressed mRNA in the presence/in the absence of chemical substance (yeast gene YGL012W): 1.0
- The level of expressed mRNA in the presence of chemical substance/The level of expressed mRNA in the absence of chemical substance (yeast gene YGL022W): 0.5
- level of expressed mRNA in the presence/in the absence of chemical substance (yeast gene YGL115W): 0.9
- The level of expressed mRNA in the presence of chemical substance/The level of expressed mRNA in the absence of chemical substance (yeast gene YGL126W): 0.6
- level of expressed mRNA in the presence/in the absence of chemical substance (yeast gene YGL205W): 0.9
- The level of expressed mRNA in the presence of chemical substance/The level of expressed mRNA in the absence of chemical substance (yeast gene YGL209W): 1.2
- The level of expressed mRNA in the presence of chemical substance/The level of expressed mRNA in the absence of chemical substance (yeast gene YGL248W): 1.3
- The level of expressed mRNA in the presence of chemical substance/The level of expressed mRNA in the absence of chemical substance (yeast gene YGR037C): 1.0
- The level of expressed mRNA in the presence of chemical substance/The level of expressed mRNA in the absence of chemical substance (yeast gene YGR055W): 2.5
- level of expressed mRNA in the presence/in the absence of chemical substance (yeast gene YGR096W): 1.5
- level of expressed mRNA in the presence/in the absence of chemical substance (yeast gene YGR191W): 0.8
- The level of expressed mRNA in the presence of chemical substance/The level of expressed mRNA in the absence of chemical substance (yeast gene YGR194C): 0.9
- level of expressed mRNA in the presence/in the absence of chemical substance (yeast gene YGR204W): 0.5
- The level of expressed mRNA in the presence of chemical substance/The level of expressed mRNA in the absence of chemical substance (yeast gene YGR256W): 1.2
- The level of expressed mRNA in the presence of chemical substance/The level of expressed mRNA in the absence of chemical substance (yeast gene YGR282C): 1.3
- level of expressed mRNA in the presence/in the absence of chemical substance (yeast gene YGR288W): 0.9
- level of expressed mRNA in the presence/in the absence of chemical substance (yeast gene YHR025W): 0.6
- The level of expressed mRNA in the presence of chemical substance/The level of expressed mRNA in the absence of chemical substance (yeast gene YHR111W): 1.4
- level of expressed mRNA in the presence/in the absence of chemical substance (yeast gene YHR123W): 0.7
- The level of expressed mRNA in the presence of chemical substance/The level of expressed mRNA in the absence of chemical substance (yeast gene YHR137W): 0.7
- The level of expressed mRNA in the presence of chemical substance/The level of expressed mRNA in the absence of chemical substance (yeast gene YHR174W): 1.1
- The level of expressed mRNA in the presence of chemical substance/The level of expressed mRNA in the absence of chemical substance (yeast gene YHR176W): 1.8
- level of expressed mRNA in the presence/in the absence of chemical substance (yeast gene YHR210C): 1.3
- level of expressed mRNA in the presence/in the absence of chemical substance (yeast gene YIL006W): 1.0
- The level of expressed mRNA in the presence of chemical substance/The level of expressed mRNA in the absence of chemical substance (yeast gene YIL045W): 1.7
- The level of expressed mRNA in the presence of chemical substance/The level of expressed mRNA in the absence of chemical substance (yeast gene YIL107C): 1.5
- The level of expressed mRNA in the presence of chemical substance/The level of expressed mRNA in the absence of chemical substance (yeast gene YIL154C): 0.8
- The level of expressed mRNA in the presence of chemical substance/The level of expressed mRNA in the absence of chemical substance (yeast gene YIL155C): 1.0
- The level of expressed mRNA in the presence of chemical substance/The level of expressed mRNA in the absence of chemical substance (yeast gene YIR034C): 1.2
- The level of expressed mRNA in the presence of chemical substance/The level of expressed mRNA in the absence of chemical substance (yeast gene YIR036C): 1.0
- The level of expressed mRNA in the presence of chemical substance/The level of expressed mRNA in the absence of chemical substance (yeast gene YJL031C): 1.6
- The level of expressed mRNA in the presence of chemical substance/The level of expressed mRNA in the absence of chemical substance (yeast gene YJL068C): 1.2
- The level of expressed mRNA in the presence of chemical substance/The level of expressed mRNA in the absence of chemical substance (yeast gene YJL088W): 0.9
- The level of expressed mRNA in the presence of chemical substance/The level of expressed mRNA in the absence of chemical substance (yeast gene YJL099W): 1.2
- level of expressed mRNA in the presence/in the absence of chemical substance (yeast gene YJL121C): 1.0
- level of expressed mRNA in the presence/in the absence of chemical substance (yeast gene YJL167W): 0.9
- The level of expressed mRNA in the presence of chemical substance/The level of expressed mRNA in the absence of chemical substance (yeast gene YJL172W): 0.8
- level of expressed mRNA in the presence/in the absence of chemical substance (yeast gene YJL216C): 0.8
- The level of expressed mRNA in the presence of chemical substance/The level of expressed mRNA in the absence of chemical substance (yeast gene YJL219W): 1.2
- level of expressed mRNA in the presence/in the absence of chemical substance (yeast gene YJR077C): 1.1
- The level of expressed mRNA in the presence of chemical substance/The level of expressed mRNA in the absence of chemical substance (yeast gene YJR137C): 2.7
- level of expressed mRNA in the presence/in the absence of chemical substance (yeast gene YJR143C): 0.6
- The level of expressed mRNA in the presence of chemical substance/The level of expressed mRNA in the absence of chemical substance (yeast gene YJR148W): 0.7
